Read-outs that look alike come from different tables or passages of the source.
Legend:
[1] = system: HUVECs, nitric oxide (NO) level; experiment: NO production in HUVECs (assay kit); assay type: cell-based, Human; conditions: for NO level in HUVECs / NO production level in HUVECs: control 35.01 ± 1.38 µM; for NO level in HUVECs / NO content in NE-treated HUVECs / NO production level in HUVECs: mean ± SD, n = 3; for NO content in NE-treated HUVECs: peptide 300 μM + NE, NE alone 21.34 ± 1.24 µM; for NO production level in HUVECs: peptide 300 μM, 24 h, without NE; for NO content in HUVECs, result in words: treatment with peptide
Method: (§1) HUVECs were cultured in DMEM at 37 °C in a humidified 5% CO2 atmosphere, and the DMEM contained penicillin (100 U/mL), FBS (10%, v/v) and streptomycin ([…]). After 24 h, the cells were used for follow-up experiments.
(§2) After treatment with ACEi peptides (MHP6, MHP7 and MHP9, respectively) for 24 h, the NO and ET-1 content in the HUVECs was separately determined according to their assay kits as per manufacturers’ protocol.

[2] = system: HUVECs, endothelin-1 (ET-1) level; experiment: ET-1 production in HUVECs (assay kit); assay type: cell-based, Human; conditions: for ET-1 content in NE-treated HUVECs: peptide 300 μM + NE (0.5 μM), NE alone 69.58 ± 3.11 pg/mL; for ET-1 content in HUVECs, result in words: peptide at 100–300 μM
Method: as §1, §2

ACE [3] = molecular target: T1, ACE (Homo sapiens, UniProt P12821); experiment: ACEi activity (FAPGG substrate); assay type: biochemical; conditions: 1.5 mg/mL; FAPGG (3 mM) substrate, ACE 1.25 mU, 37 °C, 0.5 h incubation, HPLC at 228 nm; mean ± SD, n = 3
T1 sequence (P12821 30-1306, species assumed): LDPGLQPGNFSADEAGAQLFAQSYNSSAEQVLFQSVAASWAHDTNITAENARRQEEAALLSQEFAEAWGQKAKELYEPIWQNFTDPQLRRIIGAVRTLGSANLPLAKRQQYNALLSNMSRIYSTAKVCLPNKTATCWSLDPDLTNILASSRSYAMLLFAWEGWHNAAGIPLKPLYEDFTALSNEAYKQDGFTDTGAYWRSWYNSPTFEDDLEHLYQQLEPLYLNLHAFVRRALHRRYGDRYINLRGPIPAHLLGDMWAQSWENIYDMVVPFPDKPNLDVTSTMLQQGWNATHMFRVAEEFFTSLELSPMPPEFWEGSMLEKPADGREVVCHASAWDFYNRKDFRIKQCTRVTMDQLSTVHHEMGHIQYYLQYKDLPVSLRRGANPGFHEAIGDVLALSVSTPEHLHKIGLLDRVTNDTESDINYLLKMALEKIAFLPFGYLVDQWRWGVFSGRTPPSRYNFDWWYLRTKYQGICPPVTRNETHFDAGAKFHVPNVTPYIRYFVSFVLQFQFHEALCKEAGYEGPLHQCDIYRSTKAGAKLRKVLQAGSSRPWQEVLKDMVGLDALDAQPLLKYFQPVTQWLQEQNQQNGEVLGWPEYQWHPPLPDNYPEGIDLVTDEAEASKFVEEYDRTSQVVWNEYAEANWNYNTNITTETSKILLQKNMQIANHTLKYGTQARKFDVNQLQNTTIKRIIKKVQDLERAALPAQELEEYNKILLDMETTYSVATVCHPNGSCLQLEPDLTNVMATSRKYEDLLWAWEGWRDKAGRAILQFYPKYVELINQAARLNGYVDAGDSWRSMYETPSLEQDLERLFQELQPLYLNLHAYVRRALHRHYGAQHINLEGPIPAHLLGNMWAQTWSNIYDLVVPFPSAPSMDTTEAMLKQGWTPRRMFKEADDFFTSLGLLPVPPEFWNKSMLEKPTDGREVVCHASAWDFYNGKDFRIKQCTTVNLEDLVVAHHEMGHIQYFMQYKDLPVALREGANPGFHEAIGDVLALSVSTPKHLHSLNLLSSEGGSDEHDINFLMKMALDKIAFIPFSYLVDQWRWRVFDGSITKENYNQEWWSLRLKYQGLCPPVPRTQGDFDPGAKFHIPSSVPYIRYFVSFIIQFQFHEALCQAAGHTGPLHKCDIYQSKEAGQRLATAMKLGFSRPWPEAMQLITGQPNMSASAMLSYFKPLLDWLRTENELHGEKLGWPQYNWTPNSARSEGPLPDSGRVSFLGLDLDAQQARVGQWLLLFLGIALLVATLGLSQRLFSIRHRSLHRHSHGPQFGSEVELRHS
Method: The ACEi activity of PSC-MH, fractions and peptides (MHP1-MHP12) was determined by using FAPGG as a substrate. Briefly, the initial volume was made up of a 50 µL volume of FAPGG (3 mM), ACE (1.25 mU) and the sample solution, respectively. These solutions were first preheated at 37 °C for 0.5 h […], and mixed and incubated for an additional 0.5 h. After that, 150 µL of glacial acetic acid was added to the solution to inactivate ACE. After that, the content of hippuric acid (HA) in the reaction mixture produced from the substrate reactions catalyzed by ACE was determined using HPLC at 228 nm. In short, using an isocratic system (pH 3.0) made up of 12.5% (v/v) acetonitrile in deionized water, the amount of free HA was evaluated using an HPLC system (Agilent 1200, Agilent Ltd., Santa Clara, CA, USA) on a Zorbax SB C-18 column (4.6 × 250 mm, 5 µm). The sample (10 µL) was eluted at a flow rate of 1.0 mL/min, and the absorbance at 228 nm was monitored to obtain the measurement. A total of 50 µL of PBS buffer, used as the sample substitute, was added into the control reaction mixture. ACEi activity was calculated as follows: ACEi activity (%) = [(HA control − HA sample)/HA control] × 100%(1)

HUVECs [4] = experiment: Viability of HUVECs (MTT); assay type: cell-based, Human; conditions: for Cell viability of HUVECs: 400 µM; for Viability of HUVECs, result in words: 400 μM, 24 h, versus control and other concentration groups, p < 0.05
Method: as §1
The MTT method was employed to detect the viability of HUVECs incubated with MHP6, MHP7 and MHP9 [38]. In brief, HUVECs were seeded in 96-well plates and cultured for 24 h. Subsequently, HUVECs were separately treated with MHP6, MHP7 and MHP9 (100, 200, 300 or 400 μM) at 37 °C. After 24 h, MTT was added into the cell culture to reach a final concentration of 2 mg/mL. After 4 h, DMSO was added into each well and the absorbance at 490 nm was determined. Cell viability was calculated according to the following formula:Cell viability (%) = (Asample/Acontrol) × 100(2)

ACE [5] = molecular target: T1, ACE; conditions: cited from earlier work
Method: To illustrate the ACEi mechanism of MHP6, MHP7 and MHP9, a molecular docking assay was conducted (Figure 7), and the affinities of MHP6, MHP7 and MHP9 with ACE were −7.3, −10.9 and −9.4 kcal/mol, respectively, which were similar to those of ACEi peptides from miiuy croakers (IKSW: −9.3 kcal/mol), M. edulis (LSFR: −8.5 kcal/mol), rice bran (YSK: −7.9 kcal/mol), tuna milts (YEGDP: −8.8 kcal/mol) and soybean (LVLL: −8.6 kca ...

HUVECs [6] = conditions: cited from earlier work; for NO and ET-1 production in HUVECs: ref [73]; for ET-1 secretion and NO generation in HUVECs: peptide from tuna roes, ref [31]
Text: (§3) In addition, ET-1 is a known vasoconstriction factor, similar to Ang II, that can result in endothelial dysfunction associated with high blood pressure and atherosclerosis.

[7] = system: Nrf2 and heme oxygenase-1 (HO-1) proteins in HUVECs; conditions: oxidative damage, ref [73]; cited from earlier work
Text: as §3

[8] = peptide 300 μM, 24 h, without NE, control 54.87 ± 2.57 pg/mL, mean ± SD, n = 3

C[C@H](CS)C(=O)N1CCC[C@H]1C(=O)O [Cap, captopril, reference compound]
NO level in HUVECs ([1]; Cap treatment): 56.18 ± 2.58 µM | ET-1 level in HUVECs ([2]; Cap 1.0 μM, control 54.87 ± 2.57 pg/mL, mean ± SD, n = 3): 32.25 ± 1.26 pg/mL

NC[C@H](O)c1ccc(O)c(O)c1 [NE, norepinephrine, reference compound]
NO level in HUVECs ([1]; NE treatment, p < 0.001): 21.34 ± 1.24 µM | ET-1 content in HUVECs ([2]; NE 0.5 μM, control 54.87 ± 2.57 pg/mL, p < 0.001, mean ± SD, n = 3): 69.58 ± 3.11 pg/mL

H-FDGPY-OH [MHP7, Phe-Asp-Gly-Pro-Tyr]
ACEi activity (ACE [3]): 84.99 ± 2.34% | NO content in NE-treated HUVECs ([1]; p < 0.001): 26.31 ± 1.22 µM | NO production level in HUVECs [1]: 48.91 ± 2.35 µM | NO content in HUVECs, result in words [1]: significantly increased | Cell viability of HUVECs (HUVECs [4]): 90.39 ± 3.19% | Viability of HUVECs, result in words (HUVECs [4]): might lead to some adverse harm to the function of HUVECs | ET-1 content in NE-treated HUVECs ([2]; p < 0.001, mean ± SD, n = 3): 61.23 ± 1.89 pg/mL | ET-1 content in HUVECs [2, 8]: 43.87 ± 1.73 pg/mL | ET-1 content in HUVECs, result in words ([2]; p < 0.001): significantly reduce the ET-1 content in HUVECs

H-SEGPK-OH [MHP6, Ser-Glu-Gly-Pro-Lys]
ACEi activity (ACE [3]): 86.34 ± 3.25% | NO content in NE-treated HUVECs ([1]; p < 0.001): 31.24 ± 1.29 µM | NO production level in HUVECs [1]: 51.68 ± 2.38 µM | NO content in HUVECs, result in words [1]: significantly increased | Cell viability of HUVECs (HUVECs [4]): 91.27 ± 2.64% | Viability of HUVECs, result in words (HUVECs [4]): might lead to some adverse harm to the function of HUVECs | ET-1 content in NE-treated HUVECs ([2]; p < 0.001, mean ± SD, n = 3): 57.62 ± 1.95 pg/mL | ET-1 content in HUVECs [2, 8]: 40.35 ± 1.96 pg/mL | ET-1 content in HUVECs, result in words ([2]; p < 0.001): significantly reduce the ET-1 content in HUVECs

H-SPGPW-OH [MHP9, Ser-Pro-Gly-Pro-Trp]
ACEi activity (ACE [3]): 85.39 ± 3.46% | NO content in NE-treated HUVECs ([1]; p < 0.001): 29.87 ± 1.34 µM | NO production level in HUVECs [1]: 49.83 ± 0.96 µM | NO content in HUVECs, result in words [1]: significantly increased | Cell viability of HUVECs (HUVECs [4]): 91.76 ± 3.22% | Viability of HUVECs, result in words (HUVECs [4]): might lead to some adverse harm to the function of HUVECs | ET-1 content in NE-treated HUVECs ([2]; p < 0.001, mean ± SD, n = 3): 58.44 ± 2.34 pg/mL | ET-1 content in HUVECs [2, 8]: 42.18 ± 2.09 pg/mL | ET-1 content in HUVECs, result in words ([2]; p < 0.001): significantly reduce the ET-1 content in HUVECs

IKSW [ACEi peptide from miiuy croakers]
Affinity with ACE (ACE [5]; peptide from miiuy croakers, ref [31]): -9.3 kcal/mol

IVTNWDDMEK
NO and ET-1 production in HUVECs (HUVECs [6]): regulate NO and ET-1 production in a concentration-dependent manner | Expression levels of Nrf2 and HO-1 proteins [7]: positively regulate the expression levels of Nrf2 and heme oxygenase-1 (HO-1) proteins

LSFR
Affinity with ACE (ACE [5]; peptide from M. edulis, ref [30]): -8.5 kcal/mol

LVLL [ACEi peptide from soybean]
Affinity with ACE (ACE [5]; peptide from soybean, ref [72]): -8.6 kcal/mol

VGPAGPRG
NO and ET-1 production in HUVECs (HUVECs [6]): regulate NO and ET-1 production in a concentration-dependent manner | Expression levels of Nrf2 and HO-1 proteins [7]: positively regulate the expression levels of Nrf2 and heme oxygenase-1 (HO-1) proteins

WGESF [from tuna roes]
ET-1 secretion and NO generation in HUVECs (HUVECs [6]): significantly bring down ET-1 secretion and improve the NO generation in HUVECs

WSPGF [from tuna roes]
ET-1 secretion and NO generation in HUVECs (HUVECs [6]): significantly bring down ET-1 secretion and improve the NO generation in HUVECs

YEGDP
Affinity with ACE (ACE [5]; peptide from tuna milts, ref [32]): -8.8 kcal/mol

Source: PMC10608021, “Angiotensin-I-Converting Enzyme (ACE)-Inhibitory Peptides from the Collagens of Monkfish (Lophius litulon) Swim Bladders: Isolation, Characterization, Molecular Docking Analysis and Activity Evaluation” (Marine Drugs, 2023)
